Test results from patent US6333340A, “Small molecule sulfonamides for vision and memory disorders” (Gpi Nil Holdings, Inc., priority 1998, dated 2001).
pKi: −log10 of the molar value. Read-outs that look alike come from different tables or passages of the source.

How the values were obtained:
[1] = system: retinal ganglion cell axons; experiment: Protection of retinal ganglion cell axons from degeneration following optic nerve transection, RT 97 axon density (Table V); assay type: in vivo
Description: Efficacy of representative compounds from different immunophilin ligand series in protecting retinal ganglion cell axons from degeneration following optic nerve transection is set forth in Table V.

FKBP12 = FKBP12 (Homo sapiens, UniProt P62942); experiment: Inhibition of peptidyl-prolyl isomerase (rotamase) activity of FKBP, chymotrypsin-coupled assay; assay type: biochemical
FKBP12, sequence (P62942 whole entry): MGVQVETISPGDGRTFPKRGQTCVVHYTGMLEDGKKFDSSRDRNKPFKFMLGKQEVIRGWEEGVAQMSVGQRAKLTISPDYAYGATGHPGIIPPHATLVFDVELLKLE
Description: The inhibition of the prolyl peptidyl cis-trans isomerase activity of FKBP may be measured as an indicator of this affinity.
Inhibition of the peptidyl-prolyl isomerase (rotamase) activity of the compounds used in the inventive methods and pharmaceutical compositions can be evaluated by known methods described in the literature (Harding et al., Nature, 1989, 341:758-760; Holt et al. J. Am. Chem. Soc., 115:9923-9938). These values are obtained as apparent Ki 's and are presented for representative compounds in TABLE B.
The cis-trans isomerization of an alanine-proline bond in a model substrate, N-succinyl-Ala-Ala-Pro-Phe-p-nitroanilide, is monitored spectrophotometrically in a chymotrypsin-coupled assay, which releases para-nitroanilide from the trans form of the substrate. The inhibition of this reaction caused by the addition of different concentrations of inhibitor is determined, and the data is analyzed as a change in first-order rate constant as a function of inhibitor concentration to yield the apparent Ki values.
In a plastic cuvette are added […] of ice cold assay buffer (25 mM HEPES, pH 7.8, 100 mM NaCl), 10 mL of FKBP (2.5 mM in 10 mM Tris-Cl pH 7.5, 100 mM NaCl, 1 mM dithiothreitol), 25 mL of chymotrypsin (50 mg/ml in 1 mM HCl) and […] of test compound at various concentrations in dimethyl sulfoxide. The reaction is initiated by the addition of 5 mL of substrate (succinyl-Ala-Phe-Pro-Phe-para-nitroanilide, 5 mg/mL in 2.35 mM LiCl in trifluoroethanol).
The absorbance at 390 nm versus time is monitored for 90 seconds using a spectrophotometer and the rate constants are determined from the absorbance versus time data files.

[2] = Clearance (comments of Table V); assay type: in vitro ADME
[3] = apparent Ki, Table B, read-out: Ki

Structure (SMILES)	RT 97 RCC axon density 11 days after ON transection (36 ON axon rescued) [1] [%]	pKi (FKBP12; [3])	Clearance [2] [µL/min]	pKi (FKBP12; Table V, read-out: Ki rotomase)
CCC(C)(C)C(=O)C(=O)N1CCCC[C@H]1C(=O)O [H]	30.3			
Cc1ccc(S(=O)(=O)N2CCCCC2C(=O)OCCCCc2ccccc2)cc1 (stereo not shown) [Compound 5, 4-phenyl-1-butyl-N-(para-toluene-sulfonyl)pipecolate]		6.30		
CCC(C)(C)C(=O)C(=O)N1CCC[C@H]1C(=O)O [L]	7.8		5.2	
CCC(C)(C)C(=O)CN1CCCCC1C(=O)OC(CCc1ccccc1)CCc1ccccc1 (stereo not shown) [E]	56.6		42.8	
CCC(C)(C)C(=O)C(=O)N1CCCC[C@H]1C(=O)SCCC(c1ccccc1)c1ccccc1 [K]	13.0		4.5	
O=C(SCCCc1ccccc1)[C@@H]1CCCN1C(=O)NC12CC3CC(CC(C3)C1)C2 [B]	100			
Cc1ccc(S(=O)(=O)N2CCCCC2C(=O)OC(CCCc2ccccc2)CCCc2ccccc2)cc1 (stereo not shown) [Compound 3, 1,7-diphenyl-4-heptyl-N-(para-toluene-sulfonyl)pipecolate]		6.97		
O=C(OCCCCc1ccccc1)[C@@H]1CCCCN1S(=O)(=O)Cc1ccccc1 [D]	58.4			
CCC(C)(C)C(=O)C(=O)N1CCCC[C@H]1C(=O)CCCCc1cccnc1 [J]	15.8		1.5	6.68
CCC(C)(C)C(=O)C(=O)N1CCCC[C@H]1C(=O)O [G]	34.0			
O=C(SCCCc1ccccc1)[C@@H]1CCCN1S(=O)(=O)Cc1ccccc1 [C]	60.4		31.1	
CCC(C)(C)C(=O)C(=O)N1CCC[C@H]1C(=O)SCCC(c1ccccc1)c1ccccc1 [M]	-6.3		12.5	
O=C(OCCCCc1ccccc1)C1CCCCN1S(=O)(=O)c1ccccc1 (stereo not shown) [Compound 6, 4-phenyl-1-butyl-N-(benzene-sulfonyl)pipecolate]		6.33		
CN(C)C(=O)N1CCC[C@H]1C(=O)SCCCc1ccccc1 [N]			21.9	
CCC(C)(C)C(=O)C(=O)N1CCS[C@H]1C(=O)OCCCc1cccnc1 [F]	55.1			6.57
O=C(OCCCc1cccnc1)[C@@H]1CCCN1C(=S)NC1CCCCC1 [I]	23.8		8.0	
